# From patent publication US20240366589A1, “NHE3-BINDING COMPOUNDS AND METHODS FOR INHIBITING PHOSPHATE TRANSPORT” (Ardelyx, Inc., priority 2013, published 2024)
# Tests used:
# [1] = test system: absorption of sodium from the intestinal lumen; assay: Fecal form score (FFS) 16 h after oral dose in rats; assay type: in vivo, rat; settings: oral gavage, 16 h post-dose, scale 1-5
# Procedure, shortened: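 Eight-week-old Sprague-Dawley rats (n=6) dosed by oral gavage with compound or water vehicle between 4 and 5 PM, then housed in metabolic cages with food and water ad libitum. At 16 h, fecal form scored 1 (normal pellet) to 5 (liquid streams) by two observers; group mean reported.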
# [2] = test system: absorption of sodium from the intestinal lumen; assay: Inhibition of intestinal sodium absorption: urinary sodium (uNa) 16 h after single oral dose in rats; assay type: in vivo, rat; settings: oral gavage, 16 h post-dose
# Procedure, shortened: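 Eight-week-old Sprague-Dawley rats (n=6) given single oral gavage of compound or water vehicle in the late afternoon, then kept in metabolic cages with chow and water ad libitum. Urine collected over 16 h; sodium quantified by ion chromatography and expressed as % of vehicle mean, compared by one-way ANOVA with Dunnett's test.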
# [3] = test system: phosphorus and calcium levels in the urine of rats; assay: Urinary excretion of phosphate and calcium in rats (16 h overnight urine); assay type: in vivo, rat; settings: rats, oral gavage, 16 h post-dose
# Human NHE3 = target: T1, Human NHE3 (Homo sapiens, UniProt P48764); assay: Cell-based NHE3 activity under prompt conditions (OK cells, BCECF pH recovery), human NHE3; settings: prompt conditions; for IC50: read-out: Prompt Human NHE3 pIC50 (converted)
# T1 construct: expressed in transfected cells; host or cells: Opossum kidney (OK) cells (ATCC), electroporation
# T1 sequence (P48764 26-834): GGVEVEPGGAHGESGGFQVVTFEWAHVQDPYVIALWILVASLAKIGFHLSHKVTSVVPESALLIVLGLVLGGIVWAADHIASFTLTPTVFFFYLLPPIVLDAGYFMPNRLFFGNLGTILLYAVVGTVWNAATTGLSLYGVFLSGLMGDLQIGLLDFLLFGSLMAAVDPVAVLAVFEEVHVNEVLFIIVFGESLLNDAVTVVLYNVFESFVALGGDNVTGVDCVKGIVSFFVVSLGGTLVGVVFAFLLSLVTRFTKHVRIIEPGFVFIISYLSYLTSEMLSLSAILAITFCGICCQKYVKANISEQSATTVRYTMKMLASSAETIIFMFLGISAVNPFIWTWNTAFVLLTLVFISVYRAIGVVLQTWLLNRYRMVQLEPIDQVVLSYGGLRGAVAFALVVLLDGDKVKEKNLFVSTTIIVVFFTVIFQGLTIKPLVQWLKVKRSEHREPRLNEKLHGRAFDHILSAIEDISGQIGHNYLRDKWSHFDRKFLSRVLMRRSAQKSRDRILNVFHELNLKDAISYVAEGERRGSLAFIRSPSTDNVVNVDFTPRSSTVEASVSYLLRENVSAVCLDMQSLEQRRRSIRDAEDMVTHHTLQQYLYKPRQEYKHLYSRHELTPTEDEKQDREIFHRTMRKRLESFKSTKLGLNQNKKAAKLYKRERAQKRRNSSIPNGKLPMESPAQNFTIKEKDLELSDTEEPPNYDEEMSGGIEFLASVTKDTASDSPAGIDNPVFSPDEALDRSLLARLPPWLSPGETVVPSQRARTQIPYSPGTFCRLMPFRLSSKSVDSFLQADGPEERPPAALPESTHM
# Procedure, shortened: (§1)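 OK cells electroporated with rat or human NHE3 were loaded with 5 μM BCECF-AM in NH4Cl-HEPES (pH 7.4) for 30 min at room temperature, then acid-loaded 10 min in Na+-free choline-HEPES.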
# Rat NHE3 = target: T2, Rat NHE3 (Rattus norvegicus, UniProt P26433); assay: Cell-based NHE3 activity under prompt conditions (OK cells, BCECF pH recovery), rat NHE3; settings: prompt conditions; for IC50: read-out: Prompt Rat NHE3 pIC50 (converted)
# T2 construct: expressed in transfected cells; host or cells: Opossum kidney (OK) cells (ATCC), electroporation
# Procedure, shortened: as §1
# T2 sequence (P26433 29-831): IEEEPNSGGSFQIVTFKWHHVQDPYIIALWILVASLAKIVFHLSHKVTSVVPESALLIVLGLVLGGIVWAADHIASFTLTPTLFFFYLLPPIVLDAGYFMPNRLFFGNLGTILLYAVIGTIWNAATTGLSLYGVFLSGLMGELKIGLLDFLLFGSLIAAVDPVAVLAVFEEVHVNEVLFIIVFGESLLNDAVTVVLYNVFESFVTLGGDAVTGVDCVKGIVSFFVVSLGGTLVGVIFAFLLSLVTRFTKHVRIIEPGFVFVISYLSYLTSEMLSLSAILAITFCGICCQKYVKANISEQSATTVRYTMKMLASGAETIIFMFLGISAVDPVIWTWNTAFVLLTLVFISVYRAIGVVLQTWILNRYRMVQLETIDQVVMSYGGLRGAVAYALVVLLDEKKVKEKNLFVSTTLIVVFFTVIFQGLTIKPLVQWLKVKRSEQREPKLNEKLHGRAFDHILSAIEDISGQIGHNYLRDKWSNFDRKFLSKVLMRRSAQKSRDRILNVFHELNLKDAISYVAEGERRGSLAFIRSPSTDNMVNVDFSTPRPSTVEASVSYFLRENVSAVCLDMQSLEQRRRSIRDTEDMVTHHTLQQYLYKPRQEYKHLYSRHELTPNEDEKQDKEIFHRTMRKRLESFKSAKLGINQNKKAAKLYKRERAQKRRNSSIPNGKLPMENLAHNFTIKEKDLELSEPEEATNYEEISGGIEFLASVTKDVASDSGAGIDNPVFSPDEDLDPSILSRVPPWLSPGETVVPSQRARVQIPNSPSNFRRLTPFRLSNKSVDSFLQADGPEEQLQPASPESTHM
SMILES,Fecal Form Score average ([1]; dose 10 mg/kg),Urine Na % of control ([2]; dose 10 mg/kg),Urine P % of control ([3]; dose 10 mg/kg),Prompt Human NHE3 pIC50 (Human NHE3),Prompt Rat NHE3 pIC50 (Rat NHE3),IC50 (Rat NHE3),Fecal Form Score average ([1]; dose 1 mg/kg),Fecal Form Score average ([1]; dose 3 mg/kg),Urine Na % of control ([2]; dose 1 mg/kg),Urine Na % of control ([2]; dose 3 mg/kg),Urine P % of control ([3]; dose 1 mg/kg),Urine P % of control ([3]; dose 3 mg/kg),IC50 (Human NHE3)
CN1Cc2c(Cl)cc(Cl)cc2[C@H](c2cccc(S(=O)(=O)NCCOCCOCCOCCNC(=O)CN(CC(=O)NCCOCCOCCOCCNS(=O)(=O)c3cccc([C@@H]4CN(C)Cc5c(Cl)cc(Cl)cc54)c3)[C@@H]3CCCC[C@H]3N(CC(=O)NCCOCCOCCOCCNS(=O)(=O)c3cccc([C@@H]4CN(C)Cc5c(Cl)cc(Cl)cc54)c3)CC(=O)NCCOCCOCCOCNS(=O)(=O)c3cccc([C@@H]4CN(C)Cc5c(Cl)cc(Cl)cc54)c3)c2)C1 [compound 71],1,80%,40%,7.00,6.50,–,–,–,–,–,–,–,–
C/C(=C\c1cc(F)c(Oc2ccc(S(=O)(=O)NCCOCCOCCOCCN)cc2)c(F)c1)C(=O)N=C(N)N [compound 4],1,84%,106%,6.80,6.90,–,–,–,–,–,–,–,–
C/C(=C\c1cc(F)c(Oc2ccc(S(=O)(=O)NCCOCCOCCOCCNC(=O)NCCCCNC(=O)NCCOCCOCCOCCNS(=O)(=O)c3ccc(Oc4c(F)cc(/C=C(\C)C(=O)N=C(N)N)cc4F)cc3)cc2)c(F)c1)C(=O)N=C(N)N [compound 29],1,92%,102%,8.10,7.50,–,–,–,–,–,–,–,–
O=C(NCCCCNC(=O)NCCOCCOCCNS(=O)(=O)c1ccc(O[C@H]2c3ccccc3C[C@@H]2N2CCCCC2)cc1)NCCOCCOCCNS(=O)(=O)c1ccc(O[C@H]2c3ccccc3C[C@@H]2N2CCCCC2)cc1 [compound 66],1,35%,30%,8.35,–,4.47 nM,–,–,–,–,–,–,–
C/C(=C\c1cc(F)c(Oc2ccc(S(=O)(=O)NCCOCCOCCOCCNC(=O)COCC(=O)NCCOCCOCCOCCNS(=O)(=O)c3ccc(Oc4c(F)cc(/C=C(\C)C(=O)N=C(N)N)cc4F)cc3)cc2)c(F)c1)C(=O)N=C(N)N [compound 15],1,77%,65%,7.90,7.30,–,–,–,–,–,–,–,–
CN1Cc2c(Cl)cc(Cl)cc2[C@H](c2cccc(S(=O)(=O)N(C)CCOCCOCCNC(=O)NCCCN(CCCNC(=O)NCCOCCOCCN(C)S(=O)(=O)c3cccc([C@@H]4CN(C)Cc5c(Cl)cc(Cl)cc54)c3)CCCNC(=O)NCCOCCOCCN(C)S(=O)(=O)c3cccc([C@@H]4CN(C)Cc5c(Cl)cc(Cl)cc54)c3)c2)C1 [compound 106],4,20%,64%,7.90,7.00,–,1,2,98%,76%,124%,39%,–
CN1Cc2c(Cl)cc(Cl)cc2[C@H](c2cccc(S(=O)(=O)NCCOCCOCCN(C)C(=O)CCC(CCC(=O)N(C)CCOCCOCCNS(=O)(=O)c3cccc([C@@H]4CN(C)Cc5c(Cl)cc(Cl)cc54)c3)(CCC(=O)N(C)CCOCCOCCNS(=O)(=O)c3cccc([C@@H]4CN(C)Cc5c(Cl)cc(Cl)cc54)c3)NC(=O)COCC(=O)O)c2)C1 [compound 177],–,–,–,7.80,7.70,–,–,2,–,52%,–,45%,–
CN1Cc2c(Cl)cc(Cl)cc2[C@H](c2cccc(S(=O)(=O)NCCOCCOCCNC(=O)NCCC(CCNC(=O)NCCOCCOCCNS(=O)(=O)c3cccc([C@@H]4CN(C)Cc5c(Cl)cc(Cl)cc54)c3)(CCNC(=O)NCCOCCOCCNS(=O)(=O)c3cccc([C@@H]4CN(C)Cc5c(Cl)cc(Cl)cc54)c3)NC(=O)COCC(=O)O)c2)C1 [compound 172],–,–,–,7.10,8.20,–,–,2,–,26%,–,42%,–
NS(=O)(=O)c1ccc(O[C@H]2c3ccccc3C[C@@H]2N2CCCCC2)cc1 (racemic) [compound 38],1,101%,120%,–,–,3160 nM,–,–,–,–,–,–,2510 nM
O=C(NCCCCNC(=O)NCCOCCOCCOCCNS(=O)(=O)c1ccc(O[C@H]2c3ccccc3C[C@@H]2N2CCCCC2)cc1)NCCOCCOCCOCCNS(=O)(=O)c1ccc(O[C@H]2c3ccccc3C[C@@H]2N2CCCCC2)cc1 (racemic) [compound 51],1,79%,52%,7.90,7.40,–,–,–,–,–,–,–,–
CCN(CCOCCOCCNC(=O)NCCCN(CCCNC(=O)NCCOCCOCCN(CC)S(=O)(=O)c1cccc([C@@H]2CN(C)Cc3c(Cl)cc(Cl)cc32)c1)CCCNC(=O)NCCOCCOCCN(CC)S(=O)(=O)c1cccc([C@@H]2CN(C)Cc3c(Cl)cc(Cl)cc32)c1)S(=O)(=O)c1cccc([C@@H]2CN(C)Cc3c(Cl)cc(Cl)cc32)c1 [compound 132],–,–,–,7.70,6.00,–,–,1,–,65%,–,88%,–
C/C(=C\c1cc(F)c(Oc2ccc(S(=O)(=O)NCCOCCOCCOCCNCc3ccc(CNCCOCCOCCOCCNS(=O)(=O)c4ccc(Oc5c(F)cc(/C=C(\C)C(=O)N=C(N)N)cc5F)cc4)cc3)cc2)c(F)c1)C(=O)N=C(N)N [compound 13],1,74%,56%,7.40,6.70,–,–,–,–,–,–,–,–
CN1Cc2c(Cl)cc(Cl)cc2[C@H](c2cccc(S(=O)(=O)NCCOCCOCCOCCNC(=O)CC(O)(CC(=O)NCCOCCOCCOCCNS(=O)(=O)c3cccc([C@@H]4CN(C)Cc5c(Cl)cc(Cl)cc54)c3)C(=O)NCCOCCOCCOCCNS(=O)(=O)c3cccc([C@@H]4CN(C)Cc5c(Cl)cc(Cl)cc54)c3)c2)C1 [compound 61],3,21%,67%,7.80,7.00,–,1,1,93%,50%,96%,70%,–
N=C(N)Nc1nc(-c2cccc(N3CCN(CCOCCOCCOCCNC(=O)NCCOCCOCCNC(=O)CN(CCN(CC(=O)O)CC(=O)NCCOCCOCCNC(=O)NCCOCCOCCOCCN4CCN(c5cccc(-c6nc(NC(=N)N)nc7ccc(Cl)cc67)c5)CC4)CC(=O)O)CC3)c2)c2cc(Cl)ccc2n1 [compound 41],1,104%,133%,8.20,7.90,–,–,–,–,–,–,–,–
O=C(O)CN(CCN(CC(=O)O)CC(=O)NCCOCCOCCNS(=O)(=O)c1ccc(O[C@H]2c3ccccc3C[C@@H]2N2CCCCC2)cc1)CC(=O)NCCOCCOCCNS(=O)(=O)c1ccc(O[C@H]2c3ccccc3C[C@@H]2N2CCCCC2)cc1 (racemic) [compound 48],1,68%,55%,–,–,28.2 nM,–,–,–,–,–,–,79.4 nM
